According to the supplement of paper PMC11003180:

What was measured:
Assay in all cases: drug sensitivity score (DSS) from 5-dose viability curve (DSS (area-based score, 0 = no response)); higher = more sensitive (stronger viability inhibition); extreme values may be limits of the assay
[1] = tested on: MDCK p60AmotL2-inducible + doxycycline (p60AmotL2 expressing); settings: doxycycline: 10 ng/mL; 72 h
Outline: (§1)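 After 72 h at 37 °C on 384-well plates pre-spotted with 528 oncology drugs at five doses (1-10,000 nM), parental and doxycycline-inducible MDCK cells were assessed; both lines had been given 10 ng/mL doxycycline in the medium before seeding at 2000 cells/well. Viability was taken from CellTiter-Glo luminescence scaled per plate to vehicle and positive controls, and drug sensitivity scores were derived from dose-response fits in the Breeze pipeline.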

[2] = tested on: MDCK wild-type + doxycycline; settings: doxycycline: 10 ng/mL; 72 h
Outline: as §1

[3] = tested on: MDCK wild-type - doxycycline; settings: doxycycline: none; 72 h
Outline: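 Viability of parental MDCK cells cultured without doxycycline was measured by CellTiter-Glo luminescence and scaled per plate between vehicle and positive controls. The cells had been exposed for 72 h to an oncology library of 528 drugs at five doses (1-10,000 nM). Drug sensitivity scores were calculated from dose-response curve fits in the Breeze pipeline.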

SMILES | drug sensitivity score [1] | drug sensitivity score [2] | drug sensitivity score [3]
Cc1nc(=O)c2cc(CN(C)c3ccc(C(=O)N[C@@H](CCC(=O)O)C(=O)O)s3)ccc2[nH]1 [Raltitrexed] | 5 | 3.3 | 3
CCNC(=O)c1noc(-c2cc(C(C)C)c(O)cc2O)c1-c1ccc(CN2CCOCC2)cc1 [Luminespib] | 20.7 | 18.4 | 15.8
CCN(CC)CCNC(=O)c1c(C)[nH]c(/C=C2\C(=O)Nc3ccc(F)cc32)c1C [Sunitinib] | 1.2 | 0 | 0
O=C(/C=C/c1cccnc1)NCCCCC1CCN(C(=O)c2ccccc2)CC1 [Daporinad] | 29.3 | 29.1 | 29.3
COc1cc2nccc(Oc3ccc(NC(=O)C4(C(=O)Nc5ccc(F)cc5)CC4)cc3)c2cc1OC [Cabozantinib] | 0 | 0 | 0
CC(C)[C@H]1C(=O)N[C@@H](CCCNC(=N)N)C(=O)NCC(=O)N[C@@H](CC(=O)O)C(=O)N[C@H](Cc2ccccc2)C(=O)N1C [Cilengitide] | 3.8 | 0 | 0.2
CC(=O)O[C@H]1C(=O)[C@@]2(C)[C@H]([C@H](OC(=O)c3ccccc3)[C@]3(O)C[C@H](OC(=O)[C@H](O)[C@@H](NC(=O)c4ccccc4)c4ccccc4)C(C)=C1C3(C)C)[C@]1(OC(C)=O)CO[C@@H]1C[C@@H]2O [Paclitaxel] | 21.8 | 19.4 | 15.8
CCN(CC)Cc1ccc2cc(COC(=O)Nc3ccc(C(=O)NO)cc3)ccc2c1 [Givinostat] | 7.1 | 4.5 | 4.8
Cn1cc(CNCC2CCN(c3ncc(C(=O)NO)cn3)CC2)c2ccccc21 [Quisinostat] | 12.7 | 8.6 | 9.8
Cc1nc(Nc2ncc(C(=O)Nc3c(C)cccc3Cl)s2)cc(N2CCN(CCO)CC2)n1 [Dasatinib] | 13.7 | 1.8 | 4.9
Cc1cc(C(C)Nc2ccccc2)c2nc(N3CCOCC3)cc(=O)n2c1 (stereo not given) [TGX-221] | 0.3 | 0.4 | 0
C#Cc1cccc(Nc2ncnc3cc(OCCOC)c(OCCOC)cc23)c1 [Erlotinib] | 15.4 | 4.5 | 3.4
CC(C)[C@H](C(=O)Nc1ccc(C(=O)NO)cc1)c1ccccc1 [AR-42] | 14 | 12.4 | 10.4
CCn1c(-c2nonc2N)nc2c(C#CC(C)(C)O)ncc(OC[C@H]3CCCNC3)c21 | 0.2 | 0 | 0
CO[C@@H](C(=O)N1Cc2[nH]nc(NC(=O)c3ccc(N4CCN(C)CC4)cc3)c2C1)c1ccccc1 [Danusertib] | 8.4 | 5.6 | 4.4
COc1cc2c(NC3CCN(C(C)C)CC3)nc(C3CCCCC3)nc2cc1OCCCN1CCCC1 [UNC0638] | 5 | 5.3 | 5.2
CS(=O)(=O)c1ccc(-c2cnc(N)c(C(=O)Nc3ccccc3)n2)cc1 [VE-821] | 0 | 0 | 0
C[C@]12CC[C@H](O)CC1=CC[C@@H]1[C@@H]2CC[C@]2(C)C(c3cccnc3)=CC[C@@H]12 [Abiraterone] | 0 | 0 | 0

SMILES | drug sensitivity score [1] | drug sensitivity score [2] | drug sensitivity score [3]
COc1ccc(-c2ccc3ncc4c(c3c2)n(-c2ccc(N3CCNCC3)c(C(F)(F)F)c2)c(=O)n4C)cn1 [NVP-BGT226] | 18.9 | 13.5 | 11.8
Cc1ccc(-c2cc(C(F)(F)F)nn2-c2ccc(S(N)(=O)=O)cc2)cc1 [Celecoxib] | 0 | 0 | 0
CC#CC(=O)N1CC[C@@H](n2c(=O)n(-c3ccc(Oc4ccccc4)cc3)c3c(N)ncnc32)C1 [Tirabrutinib] | 4 | 0.8 | 0
CCCS(=O)(=O)Nc1ccc(F)c(C(=O)c2c[nH]c3ncc(-c4ccc(Cl)cc4)cc23)c1F [Vemurafenib] | 0 | 0 | 0
CN(C)Cc1c(C(=O)NCCOc2ccc(C(=O)NO)cc2)oc2ccccc12 [Abexinostat] | 18.8 | 17.5 | 15.6
O=C(Nc1c[nH]nc1-c1nc2ccc(CN3CCOCC3)cc2[nH]1)NC1CC1 [AT9283] | 6.5 | 2 | 0
CC(=O)Nc1ccc(C(=O)Nc2ccccc2N)cc1 [Tacedinaline] | 0 | 0 | 0
COc1nc(N)nc2c1ncn2[C@@H]1O[C@H](CO)[C@@H](O)[C@@H]1O [Nelarabine] | 0 | 0 | 0
CC[C@]12C=CCN3CC[C@@]4(c5cc([C@@]6(C(=O)OC)C[C@@H]7C[C@@H](C(C)(F)F)CN(Cc8c6[nH]c6ccccc86)C7)c(OC)cc5N(C)[C@H]4[C@@](O)(C(=O)OC)[C@@H]1OC(C)=O)[C@@H]32 [Vinflunine] | 3.3 | 3.7 | 4.3
Cc1ccc(F)c(NC(=O)Nc2ccc(-c3cccc4[nH]nc(N)c34)cc2)c1 [Linifanib] | 0 | 0 | 0
CC(C)(C)c1cnc(CSc2cnc(NC(=O)C3CCNCC3)s2)o1 [SNS-032] | 19.1 | 17.8 | 16.3
C=C(c1ccc(C(=O)O)cc1)c1cc2c(cc1C)C(C)(C)CCC2(C)C [Bexarotene] | 0 | 0 | 0.2
C[C@H]1Oc2cc(cnc2N)-c2c(nn(C)c2C#N)CN(C)C(=O)c2ccc(F)cc21 | 2.1 | 0 | 0.1
O=C(Nc1cccc(NC(=O)c2cccc(O)c2O)c1)c1cccc(O)c1O [MST-312] | 9.1 | 5.9 | 7.2
CC(=O)c1cc2c(o1)C(=O)c1ccccc1C2=O [Napabucasin] | 18.1 | 18.5 | 18.3
CO[C@H]1C[C@@H]2CC[C@@H](C)[C@@](O)(O2)C(=O)C(=O)N2CCCC[C@H]2C(=O)O[C@H]([C@H](C)C[C@@H]2CC[C@@H](O)[C@H](OC)C2)CC(=O)[C@H](C)/C=C(\C)[C@@H](O)[C@@H](OC)C(=O)[C@H](C)C[C@H](C)/C=C/C=C/C=C/1C [Sirolimus] | 7.6 | 2.3 | 1.9
CO[C@H]1CC[C@H](N2C(=O)CNc3ncc(-c4ccc(C(C)(C)O)nc4)nc32)CC1 [CC-223] | 5.2 | 2.9 | 2.8
